Reference: US10738074B2, “Cyclic di-nucleotide compounds as STING agonists” (Merck Sharp & Dohme Corp., priority 2015, dated 2020)
Read-outs that look alike come from different tables or passages of the source.

Tests used:
THP1 cells = test: IFN-β secretion in THP1 cell culture (5 h); format: cell-based, human; conditions: Homo sapiens, THP-1, 5 h
Protocol: The ability of compounds to stimulate the secretion of interferon-beta from THP1 cells was measured using a human IFN-β AlphaLISA kit (Perkin Elmer, Cat. No. AL265F). The basic protocol is as follows:
A Labcyte Echo 550 acoustic dispenser was used to transfer 120 nL of compound dissolved in DMSO into the wells of an empty, sterile 384-well microplate, (Corning, Cat. No. 3712). THP1 cells (American Type Culture Collection, Cat. No. TIB202) previously frozen in Recovery Medium (Life Technologies, Cat. No. 12648-010) were thawed and immediately diluted 10-fold into 37° C. assay medium (RPMI 1640+L-Glutamine & phenol red, Life Technologies, Cat. No. 11875-085; 0.5% heat inactivated fetal bovine serum, Sigma Aldrich, Cat. No. F4135; 1 mM Sodium Pyruvate, Life Technologies, Cat. No. 11360-070; lx non-essential amino acids; Life Technologies, Cat. No. 11140-050). The cell viability and count was ascertained using a Beckman Coulter V-Cell XR cell counter. The cells suspension was centrifuged at 200×g for 5 min at RT. Cells were resuspended to a density of 0.8×10^6/mL in 37° C. assay medium. Subsequent liquid transfers were performed using either a Matrix electronic multichannel pipette or an Agilent Bravo Automated Liquid Handling Platform.
The assay was started by dispensing 40 μL of the previously prepared cell suspension into the wells of the plate containing compounds. After 5 h incubation at 37° C., 5% CO2 in a humidified atmosphere, the plate of cells and compounds was centrifuged at 200×g for 5 min at RT. From each well, 5 μL of supernatant was transferred into corresponding wells of a white 384-well plate (Perkin Elmer, Cat. No. 6005620). To these supernatant-containing wells was added 10 μL of 5× Anti-Analyte Acceptor beads (50 μg/mL of AlphaLISA HiBlock Buffer) and incubated for 30 min at RT while shaking on an orbital plate shaker. To each well was added 10 μL of 5× Biotinylated Antibody Anti-analyte (5 nM in AlphaLISA HiBlock Buffer) and incubated on an orbital plate shaker for 60 min at RT or overnight at 4° C. To each well was added 25 μL of 2× SA-Donor beads (80 μg/mL in AlphaLISA HiBlock Buffer) and incubated for 30-45 min at RT in the dark while shaking on an orbital plate shaker. The plate was then read on a Perkin Elmer Envision (λex=680 nm, λem=[…]). The percent effect of the AlphaLISA signal at each compound concentration was calculated based on 30 uM cGAMP positive controls and 0.3% DMSO negative controls. The plot of percent effect versus the log of compound concentration was fit with a 4-parameter concentration response equation to calculate EC50 values. The test compounds were tested at concentrations 30000, 10000, 3333, 1111, 370.4, 123.4, 41.2, 13.7, 4.6, and 1.5 nM with 0.3% residual DMSO.
Compounds of the disclosure were evaluated for IFN-β secretion in THP1 cell culture as described above. The following table tabulates the biological data for these compounds as percent activation relative to 2′3′-cGAMP at the 30 μM concentration.

full-length HAQ STING = full-length HAQ STING (Homo sapiens (Human), UniProt Q86WV6, G230A/H232R/R293Q/R71H); test: 3H-cGAMP filtration binding assay (HAQ STING); conditions: competition with tritiated cGAMP, HAQ STING membrane
full-length HAQ STING, sequence (Q86WV6 other isoform, or with tags, fused parts or gaps, stated change not applied): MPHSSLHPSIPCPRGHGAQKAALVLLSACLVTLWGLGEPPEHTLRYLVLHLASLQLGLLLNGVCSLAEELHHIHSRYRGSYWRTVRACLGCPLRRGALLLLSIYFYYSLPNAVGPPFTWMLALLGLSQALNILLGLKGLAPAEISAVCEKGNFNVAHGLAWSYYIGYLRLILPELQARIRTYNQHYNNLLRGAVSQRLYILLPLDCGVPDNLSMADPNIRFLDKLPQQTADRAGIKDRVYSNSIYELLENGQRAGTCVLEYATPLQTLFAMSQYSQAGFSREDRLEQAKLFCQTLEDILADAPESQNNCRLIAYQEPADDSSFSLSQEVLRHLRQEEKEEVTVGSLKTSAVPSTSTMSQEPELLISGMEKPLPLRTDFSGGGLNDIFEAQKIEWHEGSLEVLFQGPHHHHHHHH
Description: (§1) The ability of compounds to bind STING is quantified by the ability to compete with tritiated cGAMP ligand for human STING receptor membrane using a radioactive filter-binding assay. The binding assay employs STING receptor obtained from Hi-Five cell membranes overexpressing full-length HAQ STING prepared in-house and tritiated cGAMP ligand also purified in-house.
as §1, with “their” for “the”, “Trichoplusia ni” for “Hi-Five”, “membranes (Tni; Expression Systems, cat #94-002F, www.exrpressionsystems.com)” for “membranes”
The basic HAQ STING filtration assay protocol is as follows:
Compound and membrane then preincubated for 60 min at RT to allow compound binding to equilibrate. Following equilibration, 8 nM of [^3H] c-GAMP ligand was prepared by diluting into assay buffer, and 50 uL of this working stock was then manually added to each well of the assay plate. […] The filter plates were then dried at 55° C. for 30 min using a pressurized VWR oven before 30 uL of Ultima GoldF scintillate was added to each well. Tritium levels for each reaction well were then measured using a PerkinElmer TopCount plate reader.
After normalization to controls, the percent activity for each compound concentration was calculated by measuring the amount of remaining radioactivity. The plot of percent activity versus the log of compound concentration was fit with a 4-parameter dose response equation to calculate EC50 values.

[1] = IFN-β secretion, THP1 cells, 5 h, 30 μM, read-out: % Effect at 30 μM relative to 2′3′-cGAMP

Row | EC50 (full-length HAQ STING) [nM] | SMILES | activation at 30 µM (THP1 cells; read-out: % Effect at 30 μM relative to 2′3′-cGAMP, IFN-β secretion, THP1 cells, 5 h, 30 μM) [%] | activation at 30 µM (THP1 cells; [1]) [%]
1 |  | [N-]=[N+]=N[C@H]1[C@H]2OP(O)(=S)OC[C@H]3O[C@@H](n4cnc5c(=O)[nH]c(N)nc54)[C@H](OP(O)(=S)OC[C@H]1O[C@H]2n1cnc2c(N)ncnc21)[C@@H]3F (single isomer, unassigned) [Example 18] | 118 | 
2 |  | Nc1nc2c(ncn2[C@@H]2O[C@@H]3COP(=O)(S)O[C@@H]4[C@H](O)[C@@H](COP(=O)(S)O[C@@H]2[C@@H]3O)O[C@H]4n2cnc3c(=O)[nH]c(N)nc32)c(=O)[nH]1 (single isomer, unassigned) [Example 25] |  | 89
3 |  | Nc1nc2c(ncn2[C@@H]2O[C@@H]3COP(=O)(S)OC4C(O)[C@@H](COP(=O)(S)OC2[C@@H]3O)O[C@H]4n2cnc3c(N)ncnc32)c(=O)[nH]1 (stereo in doubt) [Example 15, 2-amino-9-[(1R,6R,8R,9R,14R,16R,17R,18R)-16-(6-amino-9H-purin-9-yl)-17,18-dihydroxy-3,11-dioxido-3,11-disulfanyl-2,4,7,10,12,15-hexaoxa-3,11-diphosphatricyclo[12.2.1.1^6,9]octadec-8-yl]-1,9-dihydro-6H-purin-6-one] |  | 132
4 | 19 | Nc1nc2c(ncn2[C@@H]2O[C@@H]3COP(=O)(O)O[C@@H]4C[C@@H](COP(=O)(O)O[C@@H]2[C@@H]3O)O[C@H]4n2cnc3c(N)ncnc32)c(=O)[nH]1 [Example 1, 2-amino-9-[(1R,6R,8R,9R,14S,16R,18R)-16-(6-amino-9H-purin-9-yl)-3,11,18-trihydroxy-3,11-dioxido-2,4,7,10,12,15-hexaoxa-3,11-diphosphatricyclo[12.2.1.1^6,9]octadec-8-yl]-1,9-dihydro-6H-purin-6-one] |  | 121
5 | 18.2 | Nc1nc2c(ncn2[C@@H]2O[C@@H]3COP(=O)(O)O[C@@H]4[C@H](O)[C@@H](COP(=O)(O)O[C@@H]2C3)O[C@H]4n2cnc3c(N)ncnc32)c(=O)[nH]1 [Example 2, 2-amino-9-[(1R,6S,8R,9R,14R,16R,17R)-16-(6-amino-9H-purin-9-yl)-3,11,17-trihydroxy-3,11-dioxido-2,4,7,10,12,15-hexaoxa-3,11-diphosphatricyclo[12.2.1.1^6,9]octadec-8-yl]-1,9-dihydro-6H-purin-6-one] |  | 123
6 | 3.6 | Nc1nc2c(ncn2[C@@H]2O[C@@H]3COP(=O)(O)O[C@@H]4[C@H](O)[C@@H](COP(=O)(O)O[C@@H]2[C@@H]3F)O[C@H]4n2cnc3c(N)ncnc32)c(=O)[nH]1 [Example 3, 2-amino-9-[(1R,6R,8R,9S,14R,16R,17R,18R)-16-(6-amino-9H-purin-9-yl)-18-fluoro-3,11,17-trihydroxy-3,11-dioxido-2,4,7,10,12,15-hexaoxa-3,11-diphosphatricyclo[12.2.1.1^6,9]octadec-8-yl]-1,9-dihydro-6H-purin-6-one] |  | 150
7 | 1.8 | Nc1nc2c(ncn2[C@@H]2O[C@@H]3COP(=O)(O)O[C@@H]4[C@H](F)[C@@H](COP(=O)(O)O[C@@H]2[C@@H]3O)O[C@H]4n2cnc3c(N)ncnc32)c(=O)[nH]1 [Example 4, 2-amino-9-[(1S,6R,8R,9R,14R,16R,17R,18R)-16-(6-amino-9H-purin-9-yl)-17-fluoro-3,11,18-trihydroxy-3,11-dioxido-2,4,7,10,12,15-hexaoxa-3,11-diphosphatricyclo[12.2.1.1^6,9]octadec-8-yl]-1,9-dihydro-6H-purin-6-one] |  | 104
8 | < 1 | [N-]=[N+]=N[C@H]1[C@H]2OP(=O)(O)OC[C@H]3O[C@@H](n4cnc5c(N)ncnc54)[C@H](OP(=O)(O)OC[C@H]1O[C@H]2n1cnc2c(=O)[nH]c(N)nc21)[C@@H]3O [Example 5, 2-amino-9-[(1R,6S,8R,9R,14R,16R,17R,18R)-16-(6-amino-9H-purin-9-yl)-18-azido-3,11,17-trihydroxy-3,11-dioxido-2,4,7,10,12,15-hexaoxa-3,11-diphosphatricyclo[12.2.1.1^6,9]octadec-8-yl]-1,9-dihydro-6H-purin-6-one] |  | 145
9 | 45.2 | C[C@H]1OP(=O)(O)O[C@@H]2[C@H](F)[C@@H](COP(=O)(O)O[C@@H]3[C@H](O)[C@@H]1O[C@H]3n1cnc3c(N)ncnc31)O[C@H]2n1cnc2c(=O)[nH]c(N)nc21 [Example 7, 2-amino-9-[(1R,6R,8R,9S,13R,14S,16R,17R,18R)-16-(6-amino-9H-purin-9-yl)-18-fluoro-3,11,17-trihydroxy-13-methyl-3,11-dioxido-2,4,7,10,12,15-hexaoxa-3,11-diphosphatricyclo[12.2.1.16,9]octadec-8-yl]-1,9-dihydro-6H-purin-6-one] |  | 59
10 |  | Nc1nc2c(ncn2[C@@H]2O[C@@H]3COP(=O)(O)O[C@@H]4[C@H](F)[C@@H](COP(=O)(O)O[C@@H]2C3)O[C@H]4n2cnc3c(N)ncnc32)c(=O)[nH]1 [Example 10, 2-amino-9-[(1S,6S,8R,9R,14R,16R,17R)-16-(6-amino-9H-purin-9-yl)-17-fluoro-3,11-dihydroxy-3,11-dioxido-2,4,7,10,12,15-hexaoxa-3,11-diphosphatricyclo[12.2.1.1^6,9]octadec-8-yl]-1,9-dihydro-6H-purin-6-one] |  | 87
11 |  | Nc1nc2c(ncn2[C@@H]2O[C@@H]3COP(=O)(S)O[C@@H]4[C@H](O)[C@@H](COP(=O)(S)O[C@@H]2[C@@H]3O)O[C@H]4n2cnc3c(N)ncnc32)c(=O)[nH]1 (stereo partly drawn) [Example 14, 2-amino-9-[(1R,6R,8R,9R,14R,16R,17R,18R)-16-(6-amino-9H-purin-9-yl)-17,18-dihydroxy-3,11-dioxido-3,11-disulfanyl-2,4,7,10,12,15-hexaoxa-3,11-diphosphatricyclo[12.2.1.1^6,9]octadec-8-yl]-1,9-dihydro-6H-purin-6-one] |  | 150
12 | 1.9 | Nc1nc2c(ncn2[C@@H]2O[C@@H]3COP(=O)(O)O[C@@H]4[C@H](O)[C@@H](COP(=O)(O)O[C@@H]2[C@@H]3N)O[C@H]4n2cnc3c(N)ncnc32)c(=O)[nH]1 [Example 32, 2-amino-9-[(1R,6S,8R,9R,14R,16R,17R,18R)-18-amino-16-(6-amino-9H-purin-9-yl)-3,11,17-trihydroxy-3,11-dioxido-2,4,7,10,12,15-hexaoxa-3,11-diphosphatricyclo[12.2.1.1^6,9]octadec-8-yl]-1,9-dihydro-6H-purin-6-one] |  | 
